Experimental data published in ChEMBL document CHEMBL1201862, “PubChem BioAssay data set” (2004).
Calls of active or inactive are those of the source.

Assays:
[1] = target: Luciferin 4-monooxygenase (Photinus pyralis, UniProt P08659); test: firefly luciferase enzyme inhibitors, dose response, biochemical, luminescence (AID 1891)
[2] = Luminescence Cell-Based Dose Confirmation HTS to Identify Inhibitors of Platelet Dense Granule Release. [Related pubchem assays: 1663 (Primary HTS), 1678 (Summary of Project)]; format: functional
[3] = target: T1, DNA repair protein RAD52 homolog (Homo sapiens, UniProt P43351); format: functional, biochemical
T1 sequence (P43351 whole entry): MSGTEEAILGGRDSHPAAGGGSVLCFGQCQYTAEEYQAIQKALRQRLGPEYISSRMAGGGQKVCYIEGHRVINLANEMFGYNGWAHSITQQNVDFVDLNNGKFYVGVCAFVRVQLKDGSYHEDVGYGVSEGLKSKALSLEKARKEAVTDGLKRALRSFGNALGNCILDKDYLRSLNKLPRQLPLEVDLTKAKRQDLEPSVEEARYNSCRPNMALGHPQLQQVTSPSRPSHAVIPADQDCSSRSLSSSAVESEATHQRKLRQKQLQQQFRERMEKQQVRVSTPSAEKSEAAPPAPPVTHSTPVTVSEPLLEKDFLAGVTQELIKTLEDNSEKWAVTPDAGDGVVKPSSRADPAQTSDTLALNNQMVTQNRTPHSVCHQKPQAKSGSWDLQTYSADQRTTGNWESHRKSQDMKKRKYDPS

[4] = target: T2, Calpain-2 catalytic subunit (Sus scrofa, UniProt P43367); test: pig calpain II inhibitor potency, dose response, biochemical, fluorogenic peptide substrate (AID 1420); format: functional
T2 sequence (P43367 whole entry): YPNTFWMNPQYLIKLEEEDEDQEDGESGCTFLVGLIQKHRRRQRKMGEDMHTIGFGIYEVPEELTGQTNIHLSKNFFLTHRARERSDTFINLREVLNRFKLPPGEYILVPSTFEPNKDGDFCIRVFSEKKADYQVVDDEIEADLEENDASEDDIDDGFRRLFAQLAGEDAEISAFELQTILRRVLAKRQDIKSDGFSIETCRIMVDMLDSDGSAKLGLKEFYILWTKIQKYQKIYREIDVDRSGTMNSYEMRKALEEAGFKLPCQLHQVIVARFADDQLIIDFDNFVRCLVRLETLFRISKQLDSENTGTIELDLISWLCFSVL

[5] = inhibitors of firefly luciferase expression or activity, dose response, H4 neuroglioma cells, luminescence (AID 1990); format: functional, cell-based
[6] = Luminescence Cell-Based Dose Response HTS to Identify Inhibitors of 5'UTR Stem-Loop Driven Prion Protein mRNA Translation in H4 Neuroglioblastoma Cells. [Related pubchem assays: 1827 (Project Summary), 1813 (Primary HTS)]; format: functional
[7] = inhibitors of SNCA 5'UTR-driven reporter translation, confirmation, H4 neuroglioma cells, luminescence (AID 1988); format: functional, cell-based
[8] = test system: H9c2; test: cells; format: functional, cell-based; conditions: Rattus norvegicus, H9c2, Myocardium;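 note: confirmatory concentration-response retest of ultra-high-throughput screening hits for modulation of myocardial damage; cell death induced by hydrogen peroxide oxidative stress; compound pretreatment for 60 min then peroxide exposure for 2 h; potency is for protecting the cells against peroxide damage rather than for killing them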
[9] = test system: Streptococcus sp. 'group A'; test: growth inhibition of control SK(-) GAS strain, dose response, counter-screen for streptokinase expression inhibitor project, luminescence, kanamycin, BacTiterGlo, confirmation (AID 1900); format: functional, organism-based
[10] = target: T3, Streptokinase A (Streptococcus pyogenes serotype M1, UniProt P10520); test: S. pyogenes streptokinase expression inhibitors, potency, dose response, plasminogen activation absorbance, OD405 (AID 1914); format: functional, Streptococcus pyogenes M1 GAS;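 note: secreted streptokinase activity via plasminogen activation per viability signal from cell pellet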
T3 sequence (P10520 whole entry): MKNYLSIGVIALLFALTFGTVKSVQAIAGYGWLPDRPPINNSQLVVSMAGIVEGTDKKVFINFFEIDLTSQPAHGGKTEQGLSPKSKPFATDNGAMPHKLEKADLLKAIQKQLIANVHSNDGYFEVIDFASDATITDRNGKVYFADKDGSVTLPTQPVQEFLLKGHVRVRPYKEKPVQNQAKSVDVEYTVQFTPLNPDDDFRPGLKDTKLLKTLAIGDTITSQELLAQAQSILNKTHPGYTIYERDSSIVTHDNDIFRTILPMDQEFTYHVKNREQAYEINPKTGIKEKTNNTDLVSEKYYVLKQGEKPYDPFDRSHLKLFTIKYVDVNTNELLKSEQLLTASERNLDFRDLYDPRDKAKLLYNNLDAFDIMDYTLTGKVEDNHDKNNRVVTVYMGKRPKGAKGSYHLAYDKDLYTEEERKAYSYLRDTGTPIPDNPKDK

[11] = test system: Streptococcus; test: Group A Streptococcus viability loss, dose response, counter-screen for streptokinase expression inhibitor project, luminescence, BacTiterGlo (AID 1915); format: functional, organism-based;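 note: potency for reduction of bacterial viability or growth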
[12] = test system: INS1; test: beta cell apoptosis inhibitors, cytokine rescue, dose response, luminescence, retest (AID 449756); format: functional, cell-based; conditions: Rattus norvegicus;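 note: cell death triggered by IL-1 beta plus TNF-alpha plus IFN-gamma mixture; protective hits raise ATP signal compared with cytokine alone wells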
[13] = test system: Vero; test: cells; format: functional; conditions: Chlorocebus sabaeus
[14] = target: T4, RNA-binding protein pos-1 (Caenorhabditis elegans, UniProt G5EF15); test: inhibitors of POS-1/mex-3 RNA binding, dose response, biochemical, fluorescence polarization (AID 1964);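 note: purified POS-1 fused to maltose binding protein made in E. coli; potency of compounds blocking POS-1 binding to fluorescent RNA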
T4 sequence (G5EF15 whole entry): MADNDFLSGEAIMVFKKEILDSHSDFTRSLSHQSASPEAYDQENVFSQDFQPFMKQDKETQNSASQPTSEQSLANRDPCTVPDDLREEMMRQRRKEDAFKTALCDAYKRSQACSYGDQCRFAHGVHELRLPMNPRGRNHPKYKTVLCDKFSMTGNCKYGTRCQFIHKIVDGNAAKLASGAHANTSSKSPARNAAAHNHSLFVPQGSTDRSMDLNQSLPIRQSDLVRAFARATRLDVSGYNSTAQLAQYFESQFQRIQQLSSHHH

[15] = target: T5, Zinc finger protein mex-5 (Caenorhabditis elegans, UniProt Q9XUB2); test: MEX-5/TCR-2 RNA interaction inhibitors, dose response, biochemical, C. elegans, fluorescence polarization (AID 1960)
T5 sequence (Q9XUB2 whole entry): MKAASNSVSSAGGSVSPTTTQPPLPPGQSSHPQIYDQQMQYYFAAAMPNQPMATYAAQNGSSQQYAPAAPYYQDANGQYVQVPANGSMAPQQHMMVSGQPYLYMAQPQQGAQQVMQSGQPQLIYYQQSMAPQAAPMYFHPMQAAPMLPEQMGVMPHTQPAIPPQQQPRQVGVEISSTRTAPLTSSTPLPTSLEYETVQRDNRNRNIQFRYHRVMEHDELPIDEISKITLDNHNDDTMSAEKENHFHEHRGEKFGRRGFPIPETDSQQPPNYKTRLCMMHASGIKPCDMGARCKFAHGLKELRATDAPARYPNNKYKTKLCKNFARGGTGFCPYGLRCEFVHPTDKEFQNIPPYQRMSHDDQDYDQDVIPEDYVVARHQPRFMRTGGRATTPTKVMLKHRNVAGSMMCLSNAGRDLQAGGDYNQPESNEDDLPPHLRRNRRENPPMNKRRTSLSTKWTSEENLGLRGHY

[16] = target: Cytochrome P450 2C19 (Homo sapiens, UniProt P33261); test: Cytochrome panel assay with activity outcomes. Panel member name: p450-cyp2c19 Compounds with AC50 equal or less than 10 uM are considered active; format: functional
[17] = target: Cytochrome P450 3A4 (Homo sapiens, UniProt P08684);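 note: CYP3A4 tested as one member of a cytochrome P450 panel screen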
[18] = target: Paired box protein Pax-8 (Homo sapiens, UniProt Q06710); test: inhibitors of PAX8-driven TPO luciferase reporter, dose response, RMG-I cells, cherry-pick (AID 687027); format: functional, cell-based;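 note: luciferase reporter driven by Pax8 target thyroperoxidase promoter measured by SteadyGlo luminescence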
[19] = cytotoxicity in OVCAR8 ovarian cancer cells, dose response, PAX8 project, cell-based, plate reader, dry powder samples (AID 743197); format: functional; conditions: OVCAR-8
[20] = P. falciparum Dd2 growth inhibitors, dose response, SYBR Green, cherry-picked samples (AID 1159567); format: functional, cell-based

Sequence of Paired box protein Pax-8 (Q06710 whole entry): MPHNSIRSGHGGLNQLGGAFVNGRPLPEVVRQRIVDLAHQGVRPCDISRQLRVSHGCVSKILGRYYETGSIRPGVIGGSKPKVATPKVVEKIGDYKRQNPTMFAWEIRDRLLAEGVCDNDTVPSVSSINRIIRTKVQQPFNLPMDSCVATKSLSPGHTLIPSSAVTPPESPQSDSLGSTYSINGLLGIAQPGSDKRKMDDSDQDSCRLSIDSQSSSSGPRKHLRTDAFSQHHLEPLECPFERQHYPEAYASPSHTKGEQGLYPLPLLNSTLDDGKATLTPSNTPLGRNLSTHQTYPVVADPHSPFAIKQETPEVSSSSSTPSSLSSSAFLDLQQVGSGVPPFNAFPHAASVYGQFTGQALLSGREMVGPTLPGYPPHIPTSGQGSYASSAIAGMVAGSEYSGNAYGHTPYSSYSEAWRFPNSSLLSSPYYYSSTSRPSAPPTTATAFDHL
Sequence of Luciferin 4-monooxygenase (P08659 whole entry): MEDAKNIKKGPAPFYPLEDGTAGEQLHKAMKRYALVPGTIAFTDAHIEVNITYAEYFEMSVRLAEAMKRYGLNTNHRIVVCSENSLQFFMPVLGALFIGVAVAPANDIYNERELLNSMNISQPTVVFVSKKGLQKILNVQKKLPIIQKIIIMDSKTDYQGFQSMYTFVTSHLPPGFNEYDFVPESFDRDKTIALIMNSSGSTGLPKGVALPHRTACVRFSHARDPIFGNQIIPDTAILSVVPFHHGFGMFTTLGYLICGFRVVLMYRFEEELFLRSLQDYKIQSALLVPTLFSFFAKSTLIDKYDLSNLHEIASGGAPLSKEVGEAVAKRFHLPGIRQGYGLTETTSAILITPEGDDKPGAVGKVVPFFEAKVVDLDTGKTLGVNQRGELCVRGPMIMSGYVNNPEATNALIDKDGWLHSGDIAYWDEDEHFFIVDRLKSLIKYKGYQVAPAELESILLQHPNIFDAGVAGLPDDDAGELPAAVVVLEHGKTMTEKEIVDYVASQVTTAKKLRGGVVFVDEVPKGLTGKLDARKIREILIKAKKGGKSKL
Sequence of Cytochrome P450 3A4 (P08684 whole entry): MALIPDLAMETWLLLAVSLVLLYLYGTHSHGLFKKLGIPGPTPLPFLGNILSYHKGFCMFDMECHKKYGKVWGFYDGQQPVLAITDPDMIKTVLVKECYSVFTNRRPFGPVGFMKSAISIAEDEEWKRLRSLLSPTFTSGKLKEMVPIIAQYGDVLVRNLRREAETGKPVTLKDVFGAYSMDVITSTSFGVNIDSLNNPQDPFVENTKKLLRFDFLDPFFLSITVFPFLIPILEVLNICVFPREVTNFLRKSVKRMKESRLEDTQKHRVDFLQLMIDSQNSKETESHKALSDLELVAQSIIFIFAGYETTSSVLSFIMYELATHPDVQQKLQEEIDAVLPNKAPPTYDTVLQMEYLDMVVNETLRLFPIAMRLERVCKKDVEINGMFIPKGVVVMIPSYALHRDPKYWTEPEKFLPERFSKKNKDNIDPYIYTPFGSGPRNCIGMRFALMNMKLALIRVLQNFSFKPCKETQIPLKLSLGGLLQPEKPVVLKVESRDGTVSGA
Sequence of Cytochrome P450 2C19 (P33261 whole entry): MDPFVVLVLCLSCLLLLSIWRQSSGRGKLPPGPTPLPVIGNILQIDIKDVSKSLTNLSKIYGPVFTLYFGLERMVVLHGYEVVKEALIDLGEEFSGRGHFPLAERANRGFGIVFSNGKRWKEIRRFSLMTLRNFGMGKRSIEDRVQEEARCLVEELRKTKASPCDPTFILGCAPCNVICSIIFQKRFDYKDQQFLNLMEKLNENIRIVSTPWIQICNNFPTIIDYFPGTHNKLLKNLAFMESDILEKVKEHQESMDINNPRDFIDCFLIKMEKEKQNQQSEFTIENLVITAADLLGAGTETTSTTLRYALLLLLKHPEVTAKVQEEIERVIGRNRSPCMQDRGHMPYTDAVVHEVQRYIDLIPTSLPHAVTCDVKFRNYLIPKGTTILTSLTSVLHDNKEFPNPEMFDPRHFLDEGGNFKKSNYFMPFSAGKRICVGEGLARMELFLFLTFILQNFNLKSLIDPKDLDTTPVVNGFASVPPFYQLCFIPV

Compound: CCn1ccc(C(=O)Nc2c(C)nn(Cc3c(F)c(F)c(F)c(F)c3F)c2C)n1
- EC50 [1]: > 112 µM (not active)
- EC50 [2]: > 112 µM (not active)

Compound: Cc1ccc2c(c1)c1c3n2CCN(CC(O)CNC(C)C)C3CCC1 (configuration not stated)
- AC50 [3]: 15.8 µM (active)

Compound: COc1ccc2nc(NCCN=C(S)NCCCN3CCOCC3)c(C#N)cc2c1
- AC50 [3]: 9.87 µM (active)

Compound: CCC(=O)N1CCc2cc(S(=O)(=O)N3CCc4ccccc4C3)ccc21
- IC50 [4]: < 0.4 µM (not active)

Compound: CCOc1ccc(NC(=S)N2CCC(NC(=O)c3ccccc3C)CC2)cc1
- EC50 [5]: > 120 µM (not active)
- EC50 [6]: > 120 µM (not active)
- EC50 [7]: > 120 µM (not active)

Compound: CC(C)(C)c1ccc(OCC(=O)Nc2ccc3c4c(cccc24)C(=O)NC3=O)cc1
- EC50 [5]: > 120 µM (not active)
- EC50 [6]: 10.8 µM (active)
- EC50 [7]: > 120 µM (not active)
- IC50 [8]: 20.9 µM (active)

Compound: O=C1c2ccc3c4c(ccc(c24)C(=O)N1c1cccc(O)c1)C(=O)N(c1cccc(O)c1)C3=O
- EC50 [5]: 17.1 µM (active)
- EC50 [9]: 1.22 µM (active)
- EC50 [6]: 85.7 µM (active)
- EC50 [7]: 15.1 µM (active)
- EC50 [10]: > 150 µM (not active)
- EC50 [11]: 1.29 µM (active)
- AC50 [12]: 0.848 µM (active)
- CC50 [13]: > 25 µM (active)

Compound: CC(C)N1CCc2c(sc(NC(=O)c3ccc4ccccc4c3)c2C(N)=O)C1
- EC50 [14]: > 300 µM (not active)
- EC50 [15]: > 300 µM (inconclusive)
- CC50 [13]: > 25 µM (active)

Compound: Cc1ccc(SCCN=C(S)Nc2cc(C)cc(C)c2)cc1
- IC50 [4]: 6.82 µM (not active)

Compound: COc1ccc(N(C(=O)Cn2nnc(-c3ccccc3F)n2)C(C(=O)NCC2CCCO2)c2ccc(Cl)cc2)cc1 (configuration not stated)
- IC50 [4]: > 50 µM (not active)

Compound: CC(C)C[C@H](NC(=O)[C@@H]1O[C@H]1C(=O)O)C(=O)NCCCCN=C(N)N
- IC50 [4]: > 50 µM (not active)
- AC50 [16]: inconclusive
- AC50 [17]: 0.158 µM (inconclusive)

Compound: O=C(Nc1cccc(-c2nnc(-c3ccco3)o2)c1)c1ccccc1
- IC50 [4]: 2.37 µM (not active)

Compound: CCOc1cc2c(cc1C(C)(C)C)NC(=O)CS2
- EC50 [1]: > 112 µM (not active)
- EC50 [2]: > 112 µM (not active)

Compound: Cc1noc(C)c1CSc1nnc2scc(-c3ccc(Cl)cc3)n12
- EC50 [1]: > 112 µM (not active)
- EC50 [2]: > 112 µM (not active)

Compound: Fc1ccccc1Nc1nc2ccccc2o1
- EC50 [1]: 0.83 µM (active)
- EC50 [2]: 4.57 µM (active)

Compound: CCN(CC)CCN1CCn2c3c(c4cc(C)ccc42)CCCC31 (configuration not stated)
- AC50 [3]: 17.6 µM (active)

Compound: Cc1cccc(C(=O)Nc2cccc(S(=O)(=O)NCc3ccco3)c2)c1
- CC50 [13]: 23.6 µM (active)

Compound: COc1cccc(S(=O)(=O)N(C)C[C@H]2OCc3ccccc3-c3c(n(C)c4ccccc34)C(=O)N([C@H](C)CO)C[C@H]2C)c1
- AC50 [18]: 9.53 µM (active)
- AC50 [19]: > 70 µM (inactive)

Compound: Cc1ccc(S(=O)(=O)N(C)C[C@@H]2OCCCC[C@H](C)Oc3ccc(NS(=O)(=O)c4cccs4)cc3C(=O)N([C@H](C)CO)C[C@H]2C)cc1
- AC50 [18]: 6.6 µM (active)
- AC50 [19]: > 70 µM (inactive)

Compound: CC(=O)Nc1cccc(-c2cc(N3CCN(CCO)CC3)n3nccc3n2)c1
- AC50 [3]: 27.6 µM (active)

Compound: COc1ccc(S(=O)(=O)N(C)C[C@H]2OCCCC[C@@H](C)Oc3ccc(NS(=O)(=O)c4c(C)noc4C)cc3C(=O)N([C@H](C)CO)C[C@H]2C)cc1
- AC50 [18]: 7.76 µM (active)
- AC50 [19]: 66 µM (active)

Compound: C[C@H](CO)N1C[C@H](C)[C@H](CN(C)Cc2ccc(C(F)(F)F)cc2)OCCCC[C@H](C)Oc2ccc(NC(=O)c3ccccc3)cc2C1=O
- AC50 [18]: 9.33 µM (active)
- AC50 [19]: 43.7 µM (active)

Compound: CN(C)CCCNc1nc2cc(-c3cnn(C)c3)sc2c(=O)n1C
- AC50 [3]: 10.2 µM (active)

Compound: COc1cccc(/C=N/Nc2ccc(S(=O)(=O)O)cc2)c1O
- EC50 [1]: 3.91 µM (active)
- EC50 [2]: 3.13 µM (active)

Compound: Cc1cc(C(=O)N/N=C/c2ccc(OCc3ccccc3)cc2)c(C)o1
- IC50 [4]: < 0.4 µM (not active)

Compound: COc1ccc(CO/N=C/c2c(C)nc(O)nc2O)cc1
- EC50 [1]: > 112 µM (not active)
- EC50 [2]: 13.8 µM (active)

Compound: Cc1ccccc1S(=O)(=O)N1[C@H](CO)[C@@H](c2ccc(C#CC3CC3)cc2)[C@@H]1C#N
- AC50 [20]: 4.33 µM (active)

Compound: CC(C)(C)[S@+]([O-])N1Cc2cc(C(=O)NCCN3CCCCC3)nc(-c3cccc(-c4ccc(C#N)cc4)c3)c2[C@@H]1CCO
- AC50 [20]: 9.22 µM (active)

Compound: COc1ccccc1CNC(=O)C[C@H]1C[C@H]2c3cc(NC(=O)Cc4ccncc4)ccc3O[C@H]2[C@@H](CO)O1
- AC50 [20]: 4.52 µM (active)

Compound: C[C@@H]1CN([C@H](C)CO)C(=O)c2c(c3ccccc3n2C)-c2ccccc2CO[C@@H]1CN(C)Cc1cccc(F)c1
- AC50 [20]: 3.45 µM (active)

Compound: COc1cccc(CNC(=O)c2cc3c(c(-c4cccc(-c5ccncc5)c4)n2)[C@@H](CCO)N([S@+]([O-])C(C)(C)C)C3)c1
- AC50 [20]: 4.32 µM (active)
